For one data set, the system named is QPCTL target loci. Nature of the data set: CRISPR editing analysis (TIDE / ICE) of double-sgRNA infected samples, QPCTL target loci. It is filed as cell-based, human. The conditions noted are these: two independent experiments; for mean percent edited: TIDE. On the procedure: Generation of CD47, QPCT and QPCTL knock-out cells. For transduction experiments using cell pools, single-stranded sgRNA oligos were annealed using T4 PNK in T4 ligation buffer (both NEB), and ligated into digested (BsmBI; NEB), phosphatase-treated (rSAP or CIP, NEB) and gel-purified modified pLCKO (for HAP1-Cas9) or pLCV2 (for HAP1, 293T and KMS11) backbones^24,25 using T4 DNA ligase. All plasmids were Sanger sequence verified and virus was prepared and titered as described above. HAP1, HAP1-Cas9 cells, 293T cells or KMS11 cells were infected with target and control gRNAs (MOI<1) in presence of 8 μg/ml polybrene. 24 h post infection, the medium was replaced with fresh medium containing puromycin (1 ug/ml for HAP1 and HAP1-Cas9, 1-2 ug/ml for 293T, 0.5 ug/ml for KMS11) and cells were incubated for 48 h. Cells were further cultured in selection-free medium as indicated for individual experiments (typically T3-T6), and passaged every 3-4 days. […] For infections with two sgRNAs (HAP1-Cas9 only), the second sgRNA was cloned into pLCKO hygro. Selection was carried out in puromycin (1 ug/ml) and hygromycin (800 ug/ml)-containing medium for the first 48 h, then in hygromycin-only medium for further 4-5 days. […] Single-cell colonies were expanded, cryo-banked (in standard medium with 10% DMSO and a total of 20% FBS) and analyzed for mutations as described below. […]
CRISPR editing analysis. For analysing indels after CRISPR-mediated editing, genomic DNA was isolated using the QIAamp DNA Blood Mini kit (Qiagen) or the Extracta DNA Prep kit (Quantabio). sgRNA target regions (100-200 bp up- and 500 bp downstream of sgRNA sequence) were amplified by touchdown PCR (−0.5° C./cycle from 72° C. to 60° C. plus 10 additional cycles at 59° C.) from 50-100 ng input DNA, PCR products were purified using the PureLink Quick PCR purification kit (Invitrogen) if necessary and analyzed by Sanger sequencing. Sequences were analyzed to determine the percentage of edited sequences contained in the sample using TIDE^49 and a “KO-score” using ICE^50 (Synthego). […]

The next data set relates to QPCT target loci. Nature of the data set: CRISPR editing analysis (TIDE / ICE) of double-sgRNA infected samples, QPCT target loci. The conditions noted are these: two independent experiments; for KO-score: ICE; for mean percent edited: TIDE. The format is cell-based, human. The method, then:
Generation of CD47, QPCT and QPCTL knock-out cells. For transduction experiments using cell pools, single-stranded sgRNA oligos were annealed using T4 PNK in T4 ligation buffer (both NEB), and ligated into digested (BsmBI; NEB), phosphatase-treated (rSAP or CIP, NEB) and gel-purified modified pLCKO (for HAP1-Cas9) or pLCV2 (for HAP1, 293T and KMS11) backbones^24,25 using T4 DNA ligase. All plasmids were Sanger sequence verified and virus was prepared and titered as described above. HAP1, HAP1-Cas9 cells, 293T cells or KMS11 cells were infected with target and control gRNAs (MOI<1) in presence of 8 μg/ml polybrene. 24 h post infection, the medium was replaced with fresh medium containing puromycin (1 ug/ml for HAP1 and HAP1-Cas9, 1-2 ug/ml for 293T, 0.5 ug/ml for KMS11) and cells were incubated for 48 h. Cells were further cultured in selection-free medium as indicated for individual experiments (typically T3-T6), and passaged every 3-4 days. […] For infections with two sgRNAs (HAP1-Cas9 only), the second sgRNA was cloned into pLCKO hygro. Selection was carried out in puromycin (1 ug/ml) and hygromycin (800 ug/ml)-containing medium for the first 48 h, then in hygromycin-only medium for further 4-5 days. For single-cell knock-out clones (HAP1 only), sgRNAs were cloned into modified PX459v2.0 (from Addgene #62988, 1 kb stuffer sequence added). HAP1 cells were transfected using Lipofectamine 3000 (3.75 μl and 2.3 μg plasmid per 6-well), selected with puromycin for 48 h as above and seeded in limiting dilutions (1 cell/100 μl/96-well) 3 days later. Single-cell colonies were expanded, cryo-banked (in standard medium with 10% DMSO and a total of 20% FBS) and analyzed for mutations as described below. An sgRNA targeting the AAVS1 locus was used as negative control.
CRISPR editing analysis. For analysing indels after CRISPR-mediated editing, genomic DNA was isolated using the QIAamp DNA Blood Mini kit (Qiagen) or the Extracta DNA Prep kit (Quantabio). sgRNA target regions (100-200 bp up- and 500 bp downstream of sgRNA sequence) were amplified by touchdown PCR (−0.5° C./cycle from 72° C. to 60° C. plus 10 additional cycles at 59° C.) from 50-100 ng input DNA, PCR products were purified using the PureLink Quick PCR purification kit (Invitrogen) if necessary and analyzed by Sanger sequencing. Sequences were analyzed to determine the percentage of edited sequences contained in the sample using TIDE^49 and a “KO-score” using ICE^50 (Synthego). Non-edited cells amplified with the same primers were used as control samples. A representative analysis of double-sgRNA infected samples from two independent experiments yielded the following editing results for QPCT and QPCTL target loci (by sgRNA; mean percent edited/KO-score±SD): QPCTL #1 58.2/NA±16.2/N, QPCTL #2 33.23/47±32.96/0, QPCT #1 33.15/56±36.51/0, QPCT #2 80.2/76.4±19.85/2.42, QPCT #3 68.18/36.33±4.29/2.08; AAVS1/CD47 #1 (background or off-target, mean±SD over all QPCT and QPCTL target loci) 14.4/1.33±14.95/0.58. For single-cell derived clones, TIDE and ICE were used for screening purposes, and mutations were independently confirmed by PCR, Sanger sequencing and sequence alignment as described.

For the next data set, the system named is CD47. Briefly: Validation of CD47 sgRNA knock-out HAP1 cell lines by flow cytometry and microfluidic sorting. The format is cell-based, human. The conditions noted are these: HAP1 cells, CD47 gene (FIG. 11C). The text has this: As shown in FIG. 11A-C, this included sorting the wildtype (WT) HAP1 cells at different flow rates to decide on the ideal operating conditions, assessing the sorting of HAP1 cells transduced with sgRNAs targeting the CD47 gene (which should result in a decrease in the number of CD47+ cells), and mixing WT and clone cells together, sorting them and recovering the initial ratios. Experimental parameters were designed to have the majority of WT HAP1s be sorted into the middle bin thus upregulation and downregulation of CD47 could be assessed. […]
MICS sorting. […] Cells were sorted by MICS at a concentration of ˜5×10^6 cells/ml in HBSS with 2% BSA; initial cell concentration was measured using a Countess Automated Cell Counter (Invitrogen). […] Sorted samples were collected in their respective syringes, and the volume of solution collected in each syringe was measured by weight. […] Each sample was then loaded onto a 10-chambered microscope slide (Quick Read 3805, Globe Scientific) and cells were counted under fluorescent excitation using a custom counting macro and a Nikon TI Eclipse microscope. Sort efficiency was calculated by dividing the number of cells collected in the medium and high outlets by the total number of cells collected (low, medium and high). […]
Background: In flow cytometry, cells or beads pass a laser one at a time.

In a further data set the target is T1, QPCTL (Homo sapiens, UniProt Q9NXS2).
T1 construct: endogenous in cells; host or cells: HAP1 cells (Horizon, clone C631)
T1 sequence (Q9NXS2 whole entry): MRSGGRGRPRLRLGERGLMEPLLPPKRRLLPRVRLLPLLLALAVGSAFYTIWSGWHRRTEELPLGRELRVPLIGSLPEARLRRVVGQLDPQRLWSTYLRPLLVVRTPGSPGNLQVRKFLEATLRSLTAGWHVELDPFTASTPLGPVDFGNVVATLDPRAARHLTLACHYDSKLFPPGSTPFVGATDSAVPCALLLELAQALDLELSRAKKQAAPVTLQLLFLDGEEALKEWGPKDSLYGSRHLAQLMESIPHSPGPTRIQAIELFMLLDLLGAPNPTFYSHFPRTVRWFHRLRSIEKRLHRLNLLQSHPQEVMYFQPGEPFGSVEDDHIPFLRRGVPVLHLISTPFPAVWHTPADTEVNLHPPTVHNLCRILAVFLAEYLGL
Briefly: Flow cytometry and immunofluorescence of CD47 antibody binding in HAP1 cells after QPCTL inhibitor treatment. The format is cell-based. The note with it: inhibitor treatment (FIG. 14B, 14D, 14E), CC2C6 detects pyro-Glu modified CD47.

“QPCTL #2: sgRNA from the TKOv3 library, sequence ACAGGGCACAGCCGAATCCG (chemistry not fully specified)” came in with a KO-score in the data set with QPCTL target loci (ICE) of 47. Further, in the data set on QPCTL target loci, the mean percent edited turned out to be 33.23%.
In the data set on QPCT target loci, “QPCT #2: sgRNA from the TKOv3 library, sequence AGAGGCACCAGCCAACTGCA (chemistry not fully specified)” showed a KO-score of 76.4 and a mean percent edited of 80.2%.
“QPCTL #1: sgRNA from the TKOv3 library, sequence GGGTTCGCACAACCAGCAGG (chemistry not fully specified)” registered a mean percent edited with QPCTL target loci of 58.2%.
In the data set with QPCT target loci, “QPCT #3: sgRNA from the TKOv3 library, sequence GACCAAATGTCGTTTAGCAG (chemistry not fully specified)” returned a KO-score of 36.33 and a mean percent edited of 68.18%.
Take “Guide #4: sgRNA targeting CD47 from the TKOv3 library, sequence GAAGACTATACAACCTCCTA (chemistry not fully specified)”: in the data set on CD47, the gene inactivation entry is listed as “ineffective at gene inactivation”.
Take `CCCOc1ccc([C@H]2CNC(=O)N2c2ccc3[nH]cnc3c2)cc1` [PQ912]: on QPCTL, the CC2C6 binding result was “decreased”.
As for “QPCT #1: sgRNA from the TKOv3 library, sequence TCAAGGATCACTCTTTGGAG (chemistry not fully specified)”, in the data set on QPCT target loci, the KO-score amounted to 56 and the mean percent edited came to 33.15%.
